Results on 1 compound are retold here after paper PMC8834192 (2022).

The subject of test [1] is Z0 (DNA, aptamer) CTACCAGCTTTGAGGCTCGATCCAGCTTATTCAATTATACCAGCTTATTCAATTATACCAGC
The test can be described thus: circular dichroism. As to conditions: Z0Z1 partial duplex; Z1 (S3) displaced; buffer not stated. On the technique in general: CD spectra are sensitive to the conformation of chiral molecules.

Test [2] has the same test system. The test can be described thus: UV-Vis absorbance at 260 nm of released strand. As to conditions: room temperature; partially complementary strand Z1 displaced from bead-bound Z0Z1.

Turning to `C[C@H]1CCCC(=O)CCC/C=C/c2cc(O)cc(O)c2C(=O)O1`, the binding entry in test [1] and in test [2] was “yes” in each case.
